Biological target: human Cereblon WT GST-tagged protein (Homo sapiens (Human), UniProt Q96SW2)
Experiment: CRBN-binding affinity, HTRF (CEREBLON BINDING kit)
Summary of the method: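 HTRF competition readout: compounds compete with a thalidomide-Re conjugate for GST-tagged wild-type human CRBN detected via Eu-labelled anti-GST antibody. Inhibition rate derived relative to protein-free blank wells.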

Chain of human Cereblon WT GST-tagged protein (Q96SW2 whole entry): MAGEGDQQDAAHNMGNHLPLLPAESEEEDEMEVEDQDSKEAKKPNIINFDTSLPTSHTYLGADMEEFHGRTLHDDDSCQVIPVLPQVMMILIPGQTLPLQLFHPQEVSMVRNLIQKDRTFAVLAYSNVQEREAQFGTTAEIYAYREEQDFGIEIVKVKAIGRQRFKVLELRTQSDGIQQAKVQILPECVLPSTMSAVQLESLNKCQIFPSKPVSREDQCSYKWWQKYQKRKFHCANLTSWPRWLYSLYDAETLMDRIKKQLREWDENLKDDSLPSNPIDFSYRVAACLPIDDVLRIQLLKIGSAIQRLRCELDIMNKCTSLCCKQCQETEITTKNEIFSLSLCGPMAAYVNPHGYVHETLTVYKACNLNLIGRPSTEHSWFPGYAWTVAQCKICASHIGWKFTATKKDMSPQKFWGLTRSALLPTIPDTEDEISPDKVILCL

IC50 | SMILES
1790 nM | CC1(C)CCC(CN2C3CCC2CN(Cc2cc4c(cc2F)C(=O)N(C2CCC(=O)NC2=O)C4)C3)=C(c2ccc(Cl)cc2)C1 (stereo not drawn) [GT-05535, 3-(5-((8-((4′-chloro-5,5-dimethyl-3,4,5,6-tetrahydro-[1,1′-biphenyl]-2-yl)methyl)-3,8-diazabicyclo[3.2.1]octan-3-yl)methyl)-6-fluoro-1-oxoisoindolin-2-yl)piperidine-2,6-dione]
600 nM | CC1(C)CCC(CN2CC3CC2CN3C(=O)c2ccc3c(c2)CN(C2CCC(=O)NC2=O)C3=O)=C(c2ccc(Cl)cc2)C1 (stereo not drawn) [GT-05541, 3-(5-(5-((4′-chloro-5,5-dimethyl-3,4,5,6-tetrahydro-[1,1′-biphenyl]-2-yl)methyl)-2,5-diazabicyclo[2.2.1]heptane-2-carbonyl)-1-oxoisoindolin-2-yl)piperidine-2,6-dione]
450 nM | O=C1CCC(N2Cc3cc(CN4CC5CCC4CN5C(=O)c4ccccc4-c4ccc(Cl)cc4)ccc3C2=O)C(=O)N1 (stereo not drawn) [GT-05543, 3-(5-((5-(4′-chloro-[1,1′-biphenyl]-2-carbonyl)-2,5-diazabicyclo[2.2.2]octan-2-yl)methyl)-1-oxoisoindolin-2-yl)piperidine-2,6-dione]
1050 nM | O=C1CCC(N2Cc3c(CN4CCN(Cc5ccccc5-c5ccc(F)cc5)CC4)cccc3C2=O)C(=O)N1 (stereo not drawn) [GT-05605, 3-(4-((4-((4′-fluoro-[1,1′-biphenyl]-2-yl)methyl)piperazin-1-yl)methyl)-1-oxoisoindolin-2-yl)piperidine-2,6-dione]
1180 nM | O=C1CCC(N2Cc3ccc(CN4CCN(Cc5ccccc5-c5ccc(F)cc5)CC4)cc3C2=O)C(=O)N1 (stereo not drawn) [GT-05606, 3-(6-((4-((4′-fluoro-[1,1′-biphenyl]-2-yl)methyl)piperazin-1-yl)methyl)-1-oxoisoindolin-2-yl)piperidine-2,6-dione]
630 nM | O=C1CCC(N2Cc3cc(CN4CCCN(Cc5ccccc5-c5ccc(Cl)cc5)CC4)ccc3C2=O)C(=O)N1 (stereo not drawn) [GT-05611, 3-(5-((4-((4′-chloro-[1,1′-biphenyl]-2-yl)methyl)-1,4-diazepan-1-yl)methyl)-1-oxoisoindolin-2-yl)piperidine-2,6-dione]
1410 nM | CC1(C)CCC(CN2CCN(C(=O)c3ccc4c(c3)CN(C3CCC(=O)NC3=O)C4=O)CC2)=C(c2ccc(F)cc2)C1 (stereo not drawn) [GT-05614, 3-(5-(4-((4′-fluoro-5,5-dimethyl-3,4,5,6-tetrahydro-[1,1′-biphenyl]-2-yl)methyl)piperazine-1-carbonyl)-1-oxoisoindolin-2-yl)piperidine-2,6-dione]
900 nM | O=C1CCC(N2Cc3cc(C(=O)N4CCCN(Cc5ccccc5-c5ccc(Cl)cc5)CC4)ccc3C2=O)C(=O)N1 (stereo not drawn) [GT-05616, 3-(5-(4-((4′-chloro-[1,1′-biphenyl]-2-yl)methyl)-1,4-diazepane-1-carbonyl)-1-oxoisoindolin-2-yl)piperidine-2,6-dione]
590 nM | O=C1CCC(N2Cc3cc(CN4CC5CCC4CN5Cc4ccccc4-c4ccc(Cl)cc4)ccc3C2=O)C(=O)N1 (stereo not drawn) [GT-05619, 3-(5-((5-((4′-chloro-[1,1′-biphenyl]-2-yl)methyl)-2,5-diazabicyclo[2.2.2]octan-2-yl)methyl)-1-oxoisoindolin-2-yl)piperidine-2,6-dione]
1750 nM | O=C1CCC(N2C(=O)c3ccc(C(=O)N4CCN(Cc5cccc(-c6ccc(Cl)cc6)c5)CC4)cc3C2=O)C(=O)N1 (stereo not drawn) [GT-05631, 5-(4-((4′-chloro-[1,1′-biphenyl]-3-yl)methyl)piperazine-1-carbonyl)-2-(2,6-dioxopiperidin-3-yl)isoindoline-1,3-dione]
1000 nM | O=C1CCC(N2Cc3cc(CN4CCN(C(=O)c5cnc(-c6ccccc6)cn5)CC4)ccc3C2=O)C(=O)N1 (stereo not drawn) [GT-05635, 3-(1-oxo-5-((4-(5-phenylpyrazine-2-carbonyl)piperazin-1-yl)methyl)isoindolin-2-yl)piperidine-2,6-dione]
1070 nM | O=C1CCC(N2Cc3cc(C(=O)N4CC5(CN(Cc6ccccc6-c6ccc(Cl)cc6)C5)C4)ccc3C2=O)C(=O)N1 (stereo not drawn) [GT-05637, 3-(5-(6-((4′-chloro-[1,1′-biphenyl]-2-yl)methyl)-2,6-diazaspiro[3.3]heptane-2-carbonyl)-1-oxoisoindolin-2-yl)piperidine-2,6-dione]
780 nM | O=C1CCC(N2Cc3cc(C(=O)N4CC5CC4CN5Cc4ccccc4-c4ccc(Cl)cc4)ccc3C2=O)C(=O)N1 (stereo not drawn) [GT-05639, 3-(5-(5-((4′-chloro-[1,1′-biphenyl]-2-yl)methyl)-2,5-diazabicyclo[2.2.1]heptane-2-carbonyl)-1-oxoisoindolin-2-yl)piperidine-2,6-dione]
1480 nM | O=C1CCC(N2Cc3cc(C(=O)N4CC5(CCN(Cc6ccccc6-c6ccc(Cl)cc6)CC5)C4)ccc3C2=O)C(=O)N1 (stereo not drawn) [GT-05641, 3-(5-(7-((4′-chloro-[1,1′-biphenyl]-2-yl)methyl)-2,7-diazaspiro[3.5]nonane-2-carbonyl)-1-oxoisoindolin-2-yl)piperidine-2,6-dione]
700 nM | O=C1CCC(N2Cc3cc(CN4CC5CN(C(=O)c6ccccc6-c6ccc(Cl)cc6)CC5C4)ccc3C2=O)C(=O)N1 (stereo not drawn) [GT-05645, 3-(5-((5-(4′-chloro-[1,1′-biphenyl]-2-carbonyl)hexahydropyrrolo[3,4-c]pyrrol-2(1H)-yl)methyl)-1-oxoisoindolin-2-yl)piperidine-2,6-dione]
1060 nM | CC1(C)CCC(CN2CC3CN(Cc4ccc5c(c4)CN(C4CCC(=O)NC4=O)C5=O)CC3C2)=C(c2ccc(Cl)cc2)C1 (stereo not drawn) [GT-05653, 3-(5-((5-((4′-chloro-5,5-dimethyl-3,4,5,6-tetrahydro-[1,1′-biphenyl]-2-yl)methyl)hexahydropyrrolo[3,4-c]pyrrol-2(1H)-yl)methyl)-1-oxoisoindolin-2-yl)piperidine-2,6-dione]
660 nM | CC1(C)CCC(C(=O)N2CC3CN(C(=O)c4ccc5c(c4)CN(C4CCC(=O)NC4=O)C5=O)CC3C2)=C(c2ccc(Cl)cc2)C1 (stereo not drawn) [GT-05659, 3-(5-(5-(4′-chloro-5,5-dimethyl-3,4,5,6-tetrahydro-[1,1′-biphenyl]-2-carbonyl)octahydropyrrolo[3,4-c]pyrrole-2-carbonyl)-1-oxoisoindolin-2-yl)piperidine-2,6-dione]

SMILES | IC50
CC1(C)CCC(CN2C3CCC2CN(Cc2ccc4c(c2F)CN(C2CCC(=O)NC2=O)C4=O)C3)=C(c2ccc(Cl)cc2)C1 (stereo not drawn) [GT-05534, 3-(5-((8-((4′-chloro-5,5-dimethyl-3,4,5,6-tetrahydro-[1,1′-biphenyl]-2-yl)methyl)-3,8-diazabicyclo[3.2.1]octan-3-yl)methyl)-4-fluoro-1-oxoisoindolin-2-yl)piperidine-2,6-dione] | 1170 nM
CC1(C)CCC(CN2C3CCC2CN(Cc2cc(F)c4c(c2)CN(C2CCC(=O)NC2=O)C4=O)C3)=C(c2ccc(Cl)cc2)C1 (stereo not drawn) [GT-05536, 3-(5-((8-((4′-chloro-5,5-dimethyl-3,4,5,6-tetrahydro-[1,1′-biphenyl]-2-yl)methyl)-3,8-diazabicyclo[3.2.1]octan-3-yl)methyl)-7-fluoro-1-oxoisoindolin-2-yl)piperidine-2,6-dione] | 1050 nM
CC1(C)CCC(C(=O)N2CC3CC(C2)N3C(=O)c2ccc3c(c2)CN(C2CCC(=O)NC2=O)C3=O)=C(c2ccc(Cl)cc2)C1 (stereo not drawn) [GT-05538, 3-(5-(3-(4′-chloro-5,5-dimethyl-3,4,5,6-tetrahydro-[1,1′-biphenyl]-2-carbonyl)-3,6-diazabicyclo[3.1.1]heptane-6-carbonyl)-1-oxoisoindolin-2-yl)piperidine-2,6-dione] | 1020 nM
CC1(C)CCC(C(=O)N2CC3CCC(C2)N3C(=O)c2ccc3c(c2)CN(C2CCC(=O)NC2=O)C3=O)=C(c2ccc(Cl)cc2)C1 (stereo not drawn) [GT-05539, 3-(5-(3-(4′-chloro-5,5-dimethyl-3,4,5,6-tetrahydro-[1,1′-biphenyl]-2-carbonyl)-3,8-diazabicyclo[3.2.1]octane-8-carbonyl)-1-oxoisoindolin-2-yl)piperidine-2,6-dione] | 1280 nM
CC1(C)CCC(C(=O)N2C3CCC2CN(C(=O)c2ccc4c(c2)CN(C2CCC(=O)NC2=O)C4=O)C3)=C(c2ccc(Cl)cc2)C1 (stereo not drawn) [GT-05540, 3-(5-(8-(4′-chloro-5,5-dimethyl-3,4,5,6-tetrahydro-[1,1′-biphenyl]-2-carbonyl)-3,8-diazabicyclo[3.2.1]octane-3-carbonyl)-1-oxoisoindolin-2-yl)piperidine-2,6-dione] | 960 nM
O=C1CCC(N2Cc3cc(CN4C5CC4CN(Cc4ccccc4-c4ccc(Cl)cc4)C5)c(F)cc3C2=O)C(=O)N1 (stereo not drawn) [GT-05609, 3-(5-((3-((4′-chloro-[1,1′-biphenyl]-2-yl)methyl)-3,6-diazabicyclo[3.1.1]heptan-6-yl)methyl)-6-fluoro-1-oxoisoindolin-2-yl)piperidine-2,6-dione] | 540 nM
O=C1CCC(N2Cc3cc(CN4C5CC4CN(Cc4ccccc4-c4ccc(Cl)cc4)C5)cc(F)c3C2=O)C(=O)N1 (stereo not drawn) [GT-05610, 3-(5-((3-((4′-chloro-[1,1′-biphenyl]-2-yl)methyl)-3,6-diazabicyclo[3.1.1]heptan-6-yl)methyl)-7-fluoro-1-oxoisoindolin-2-yl)piperidine-2,6-dione] | 640 nM
O=C1CCC(N2Cc3cc(CN4CC5CCC(C4)N5Cc4ccccc4-c4ccc(Cl)cc4)ccc3C2=O)C(=O)N1 (stereo not drawn) [GT-05618, 3-(5-((8-((4′-chloro-[1,1′-biphenyl]-2-yl)methyl)-3,8-diazabicyclo[3.2.1]octan-3-yl)methyl)-1-oxoisoindolin-2-yl)piperidine-2,6-dione] | 580 nM
O=C1CCC(N2Cc3cc(C(=O)N4C5CCC4CN(Cc4ccccc4-c4ccc(Cl)cc4)C5)ccc3C2=O)C(=O)N1 (stereo not drawn) [GT-05638, 3-(5-(3-((4′-chloro-[1,1′-biphenyl]-2-yl)methyl)-3,8-diazabicyclo[3.2.1]octane-8-carbonyl)-1-oxoisoindolin-2-yl)piperidine-2,6-dione] | 1210 nM
O=C1CCC(N2Cc3cc(C(=O)N4C5CC4CN(Cc4ccccc4-c4ccc(Cl)cc4)C5)ccc3C2=O)C(=O)N1 (stereo not drawn) [GT-05643, 3-(5-(3-((4′-chloro-[1,1′-biphenyl]-2-yl)methyl)-3,6-diazabicyclo[3.1.1]heptane-6-carbonyl)-1-oxoisoindolin-2-yl)piperidine-2,6-dione] | 590 nM

Reference: patent publication US20260028326A1, “COMPOUND BASED ON ISOINDOLINE-SUBSTITUTED GLUTARIMIDE BACKBONE AND USE THEREOF” (GLUETACS THERAPEUTICS (SHANGHAI) CO., LTD., priority 2022, published 2026)
